Data published in patent US9279157B2, “EMX2 in cancer diagnosis and prognosis” (The Regents of the University of California, priority 2009, dated 2016).
“Also recorded” adds a separate entry of the source.

How the values were obtained:
Format in all cases: cell-based, human
[1] = test system: EMX2 expression in NSCLC cell lines; assay: DAC de-methylation treatment of NSCLC cell lines, EMX2 expression by semi-quantitative RT-PCR; conditions: 5 μM DAC, NSCLC / lung cancer cell lines with initially silenced EMX2
Procedure: Reverse transcription-polymerase chain reaction (RT-PCR) was performed in a GeneAmp PCR system 9700 (Applied Biosystems, Foster City, Calif.), using an RT-PCR kit (SuperScript II one-step RT-PCR with Platinum Taq kit; Invitrogen, Carlsbad, Calif.) according to the manufacturer's protocol. Primers for RT-PCR were obtained from Operon Biotechnologies (Huntsville, Ala.). Total RNA of normal human lung was obtained from the Biochain Institute (Hayward, Calif.). Total RNA (500 ng) was used for each reaction. Primer sequences were as follows: human EMX2 DNA, Forward primer; 5′-[…]-3′ (SEQ ID NO: 3), Reverse primer; 5′-[…]-3′ (SEQ ID NO:4).
Human NSCLC cell lines H1299, H322 and A427 were purchased from American Type Culture Collection (ATCC), (Manassas, Va.). These cell lines were cultured in RPMI 1640 supplemented with 10% fetal bovine serum, penicillin (100 IU/mL) and streptomycin (100 μg/mL). All cells were cultured at 37° C. in a humidified incubator with 5% CO2. Total RNA from cell lines was isolated using RNeasy Mini kit (Qiagen). Treatment with 5 μM 5-aza-2′-deoxycytidine (DAC; Sigma) was done according to Clement G. et al., “Epigenetic alteration of the Wnt inhibitory factor-1 promoter occurs early in the carcinogenesis of Barrett's esophagus.” Cancer Sci 99:46-53 (2008).
Cell Culture and 5-Aza-2′-deoxycytidine (DAC) Treatment. […]

OE33 cells = assay: DAC de-methylation treatment, EMX2 expression by semi-quantitative RT-PCR in OE33; conditions: OE33 cells that did not originally express EMX2
TE-7 cells = assay: DAC treatment negative control, EMX2 expression by semi-quantitative RT-PCR in TE-7; conditions: TE-7 cells that endogenously expressed EMX2
[2] = test system: H1299 cells stably transfected with EMX2; assay: MTS assay of chemo-synergic effect between EMX2 and cisplatin; conditions: compared with cisplatin or EMX2 alone, cisplatin 0.3 ng/ml (FIG. 23D)
Procedure: The chemo-synergic effect between EMX2 and cisplatin was examined in order to determine whether EMX2 could sensitize NSCLC cells to cisplatin treatment. The H1299 lung cancer cell line was stably transfected with EMX2 The chemo-synergic effect between EMX2 and cisplatin was measured in this cell line by MTS assay (Promega, Madison, Wis.).
Stable EV- or EMX2 transfected cells were plated in 96-well plates at a density of 500 cells per well in 100 μl of culture medium with G418. Medium was changed every three days. Cell viability was evaluated by CELLTITER 96 Aqueous one solution cell proliferation assay (MTS assay) (Promega, Madison, Wis.) on days 1-7. Briefly, 20 μl of reagent was added to each well and incubated in a culture hood for 2 hr. Absorbance at 490 nm was measured with a kinetic microplate reader (Vmax; Molecular Devices, Sunnyvale, Calif.) and was used as a measure of cell number. Experiments were repeated three times.
Proliferation Assays. Stably transfected cells were plated in 96-well plates at a density of 500-1000 cells/well in 100 μl of G418 culture medium. Medium was changed every day. Cell viability was evaluated in triplicate by CellTiter 96 AQueous (Promega) per manufacturer's protocol. […] Colonies were then fixed by 10% formalin, stained with 0.5% crystal violet and counted.

Row | Compound | EMX2 expression after DAC treatment [1] | EMX2 expression after DAC treatment (OE33 cells) | EMX2 expression after DAC treatment (OE33 cells; listed as 5-aza-DAC) | EMX2 expression levels after DAC treatment (TE-7 cells) | Suppression of cell proliferation by cisplatin combined with EMX2 [2]
1 | Nc1ncn([C@H]2C[C@H](O)[C@@H](CO)O2)c(=O)n1 [DAC, 5-aza-2′-deoxycytidine] | restored EMX2 expression levels | restoration of EMX2 expression | restored | not affected | 
2 | N.N.[Cl][Pt][Cl] [cisplatin] |  |  |  |  | further enhanced; also recorded: more efficiently suppressed; also recorded: significantly enhanced
